Tests used:
Type in all cases: cell-based, human
TCF reporter activity = test: TCF mediated luciferase reporter activity (TOP/FOP) in NSCLC cell lines
Method: 24 hours before infection, stable reporter cell lines expressing TOP or FOP TCF luciferase and renilla luciferase were plated in 6 well plates at I×IO^5 cells/well. The following day cells were infected with lentiviruses expressing different Wnt antagonists, selected with 2 μg/ml puromycin for 3 days, lysed and processed for luciferase reporter assay using the dual luciferase reporter Kit (Promega) according to the manufacturer's protocol. Luciferase reporter activity was calculated by dividing the ratio TOP/RL by the FOP/RL ratio. Results were normalized to the results with vector transduced cultures.
analysis, cells were co-infected with TOP or FOP firefly luciferase mixed with a lentivirus expressing renilla luciferase (RL) used to normalize for infection efficiency (1:20-1:40 ratio). To assess the effects of FRP1 and DKK1 on TCF luciferase reporter activity, stable reporter cell lines were plated in 6 well plates and infected with vector, FRP1 or DKK1 lentiviruses. Cells were selected for 3 days with puromycin, lysed and processed for dual luciferase analysis. To generate stable inducible lines, cells were infected consecutively with tetracycline trans-activator (tTa) expressing lentivirus, selected for two weeks with 5-10 μg/ml blasticidin, followed by a second infection with lentiviruses expressing inducible FRP1, DKK1, DNTCF-4 or DNTCF-4-mOrange or empty vector, and selected for 4-7 days in 2 μg/ml puromycin in the presence of 10 ng/ml doxycycline. For induction of the antagonists, cells were trypsinized, washed with PBS and plated into 10 cm plates in the presence or absence of doxycyclin. Control cells expressing tTa or empty vector were processed in the same way. All infections were performed for 16 hr in the presence of 8 μg/ml polybrene.

Wnt2 = test: shRNA knockdown quantification of Wnt2 mRNA; settings: H23 cells, lentiviral shRNA
Description: (§1) An shRNA construct targeting human Wnt2 was obtained from Open Biosystems. The 21 bp sequence was 5′-[…]-3′ (SEQ ID NO: 1). An shRNA construct targeting GFP containing 21 bp sequence 5′ […]-3′ (SEQ ID NO: 2), was obtained from Addgene. An shRNA construct targeting human Wnt3a was generated and had the following sequence 5′-GGCGTGGCTTCTGCAGAA-3′ (SEQ ID NO: 61). Viruses were produced in 293T cells using FuGENE 6 (Roche) as described above.
(§2) Total RNA was isolated from cells using the Trizol Reagent (Invitrogen) according to the manufacturer's protocol. Semi-quantitative RT-PCR screen was performed using One Step RT-PCR Kit (Invitrogen) according to the manufacturer's protocol. PCR products were separated on 1% agarose gel. 5 μg total RNA was reverse transcribed using Superscript II reverse transcriptase (Invitrogen). Quantitative PCR was performed using SybrGreen 2× master mix (Roche) on a MJ Opticon or Stratagene MxPro3005. 50 ng cDNA were amplified as follows: 94° C. for 15 min, 94° C. for 15 s, 60° C. for 30 s, 72° C. for 1 min. Steps 2 through 4 were repeated for 40 cycles. Each reaction was performed in duplicate, and results of 3 independent experiments were used for statistical analysis. Relative mRNA expression levels were quantified using the ΔΔC(t) method (Pfaffl, 2001). Results were normalized to those for TATA Binding Protein (TBP). Primer sequences can be found in Tables 4 and 5.

axin2 = test: Real time PCR quantification of axin2 mRNA expression in NSCLC cells
Method: as §2

Wnt3a = test: shRNA knockdown quantification of Wnt3a mRNA; settings: H1819 cells, lentiviral shRNA
Description: as §1, §2

| Substance | TCF mediated luciferase reporter activity (TCF reporter activity; H23 cells, Wnt2 knockdown) | knock down of Wnt2 mRNA expression (Wnt2) | axin2 expression (axin2; H23 cells, Wnt2 knockdown) | TCF mediated luciferase reporter activity (TCF reporter activity; H1819 cells, Wnt3a knockdown) | axin2 expression (axin2; H1819 cells, Wnt3a knockdown) | knock down of Wnt3a mRNA expression (Wnt3a) |
| --- | --- | --- | --- | --- | --- | --- |
| Wnt2 shRNA: shRNA construct targeting human Wnt2 from Open Biosystems, 5′-GCTCATGTACTCTCAGGACAT-3′ (SEQ ID NO: 1) (GCTCATGTACTCTCAGGDCAT; chemistry not fully specified) [reference compound] | significant decrease | 80% | significant decrease |  |  |  |
| Wnt3a shRNA: shRNA construct targeting human Wnt3a, 5′-GGCGTGGCTTCTGCAGAA-3′ (SEQ ID NO: 61) [reference compound] |  |  |  | significant decrease | significant decrease | 70% |

Reference: patent publication US20160274120A1, “METHODS OF DETERMINING WHETHER THE WNT SIGNALING PATHWAY IS UPREGULATED IN A TUMOR” (ICAHN SCHOOL OF MEDICINE AT MOUNT SINAI, priority 2009, published 2016)
